Source: patent US9023789B2, “Amylin analogs and pharmaceutical compositions thereof” (Novo Nordisk A/S, priority 2012, dated 2015)
Numbered stars: 1 amine (or outer) side, 2 acyl side, 3 side chain; on linkers, the order of the positions; unused ones are H or OH. Bridge positions count the residues as written; N and C are the ends. Side chains are listed from the residue outwards. Peptide text beside a SMILES is read from it. * marks the point of attachment. C20 diacid = O=C(O)CCCCCCCCCCCCCCCCCCC(=O)*; γGlu = O=C(O)[C@H](CCC(=O)[*:2])N[*:1]

Columns and labels:
[1] = biological target: T1, human amylin 3(a) receptor (human calcitonin receptor + RAMP-3) in BHK570 cells (Homo sapiens, UniProt O60896+P30988); assay: ASSAY (II)a functional assay, human amylin receptor (CRE luciferase); format: cell-based
T1 construct: expressed in transfected cells
How it was run: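 BHK CRE-luc cells, calcitonin (a) receptor ± RAMP-3 (amylin 3(a)); overnight seeding, 37° C/5% CO2. 3 h ligand exposure, DMEM/10% FBS/10 mM Hepes pH 7.4. LucLite 30 min RT; luminescence (SPC).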

[2] = ASSAY (III) ThT fibrillation assay for physical stability; format: physicochemical
How it was run: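 Formulations with 1 μM ThT, pH adjusted as required, incubated at 37 °C with 960 rpm orbital shaking; fluorescence (ex 444/em 485 nm) read every 20 min. Fibrillation reported as mean ThT fluorescence ± SD of 4–8 replicates at time points; polypeptide concentration measured by reverse-phase HPLC before and after, post-centrifugation.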

[3] = biological target: T2, human amylin receptor (membranes from Amylin 3(a)/CRE-luc cells) (Homo sapiens, UniProt O60896+P30988); assay: ASSAY (V) binding to the human amylin receptor (SPA, 125I-rat amylin);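 also: competition binding of cell membranes (35 ng/µL) mixed with SPA beads in 384-well plates at 40 µL total volume, read by scintillation counting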
T2 construct: expressed in transfected cells
T2 sequence (P30988 25-474): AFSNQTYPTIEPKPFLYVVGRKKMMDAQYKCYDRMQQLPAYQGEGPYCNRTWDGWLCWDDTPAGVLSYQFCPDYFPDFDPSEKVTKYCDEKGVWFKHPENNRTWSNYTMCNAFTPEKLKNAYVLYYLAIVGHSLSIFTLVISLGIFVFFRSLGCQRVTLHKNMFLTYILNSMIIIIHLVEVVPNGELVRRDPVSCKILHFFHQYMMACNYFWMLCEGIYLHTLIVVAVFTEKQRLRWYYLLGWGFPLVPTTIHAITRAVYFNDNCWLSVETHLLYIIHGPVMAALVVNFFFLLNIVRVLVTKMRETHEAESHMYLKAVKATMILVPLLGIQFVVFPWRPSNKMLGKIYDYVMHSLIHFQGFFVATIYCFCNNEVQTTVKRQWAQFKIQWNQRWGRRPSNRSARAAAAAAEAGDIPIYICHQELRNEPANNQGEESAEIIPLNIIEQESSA
T2 sequence (O60896 24-148 partner): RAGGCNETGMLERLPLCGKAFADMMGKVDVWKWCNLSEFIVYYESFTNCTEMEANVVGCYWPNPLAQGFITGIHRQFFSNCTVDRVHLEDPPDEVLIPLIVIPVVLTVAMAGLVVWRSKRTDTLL

[4] = hCTR funct. EC50 divided by hAmylin-R funct. EC50
[5] = hCTR funct. EC50 over hAmylin-R funct. EC50
[6] = human functional selectivity: hCTR funct. EC50 / hAmylin-R funct. EC50
[7] = Table 5, selectivity, hCTR bind IC50 / hAmylin-R bind IC50
[8] = Table 5a, selectivity, hCTR bind IC50 / hAmylin-R bind IC50
[9] = Table 5b, selectivity, hCTR bind IC50 / hAmylin-R bind IC50
[10] = Table 5c, selectivity, hCTR bind IC50 / hAmylin-R bind IC50
[11] = Table 7, human binding selectivity, included for comparison
[12] = Table 7a (preferred compounds), human binding selectivity, included for comparison
[13] = ratio of human calcitonin receptor binding IC50 to human amylin receptor binding IC50

Row | Compound | Ratio hCT/hAmylin funct. [1, 4] | Ratio hCT/hAmylin funct. [1, 5] | Ratio hCT/hAmylin funct. [1, 6] | ThT pH 4.0 lag time (h) [2] [h] | Ratio hCT/hAmylin binding [3, 7] | Ratio hCT/hAmylin binding [3, 8] | Ratio hCT/hAmylin binding [3, 9] | Ratio hCT/hAmylin binding [3, 10] | Ratio hCT/hAmylin binding [3, 11] | Ratio hCT/hAmylin binding [3, 12] | Ratio hCT/hAmylin binding [3, 13]
1 | CC[C@H](C)[C@H](NC(=O)[C@H](C)NC(=O)CNC(=O)[C@H](Cc1ccccc1)NC(=O)[C@H](CC(N)=O)NC(=O)[C@@H]1CCCN1C(=O)[C@H](CO)NC(=O)[C@H](CO)NC(=O)[C@H](Cc1c[nH]cn1)NC(=O)[C@H](CCCNC(=N)N)NC(=O)[C@H](CC(C)C)NC(=O)[C@H](Cc1ccccc1)NC(=O)[C@H](Cc1c[nH]cn1)NC(=O)[C@H](C)NC(=O)[C@H](CC(C)C)NC(=O)[C@H](CCCNC(=N)N)NC(=O)[C@H](CCC(N)=O)NC(=O)[C@@H](NC(=O)[C@H](C)NC(=O)[C@@H]1CSSC[C@H](NC(=O)[C@H](CCCNC(=N)N)NC(=O)CNC(=O)CC[C@H](NC(=O)CCCCCCCCCCCCCCCCCCC(=O)O)C(=O)O)C(=O)N[C@@H](CC(N)=O)C(=O)N[C@@H]([C@@H](C)O)C(=O)N[C@@H](C)C(=O)N[C@@H]([C@@H](C)O)C(=O)N1)[C@@H](C)O)C(=O)N1CCC[C@H]1C(=O)N[C@@H](CO)C(=O)N[C@@H](CO)C(=O)N[C@H](C(=O)N[C@@H](CC(N)=O)C(=O)N[C@H](C(=O)NCC(=O)N[C@@H](CO)C(=O)N[C@@H](CC(N)=O)C(=O)N[C@H](C(=O)N[C@@H](Cc1ccc(O)cc1)C(N)=O)[C@@H](C)O)C(C)C)[C@@H](C)O [Example 99] ({C20 diacid-γGlu}-GRCNTATCATQRLAHFLRHSSPNFGAIPSSTNVGSNTY-NH2; disulfide 3-8) | 10.0 | 10.0 | 10.0 | 17 | 100.4 | 100.4 | 100.4 | 100.4 | 100.4 | 100.4 | 100.4
2 | CC[C@H](C)[C@H](NC(=O)[C@H](C)NC(=O)CNC(=O)[C@H](Cc1ccccc1)NC(=O)[C@H](CC(N)=O)NC(=O)[C@@H]1CCCN1C(=O)[C@H](CO)NC(=O)[C@H](CO)NC(=O)[C@H](Cc1c[nH]cn1)NC(=O)[C@H](CCCNC(=N)N)NC(=O)[C@H](CC(C)C)NC(=O)[C@H](Cc1ccccc1)NC(=O)[C@H](Cc1c[nH]cn1)NC(=O)[C@H](C)NC(=O)[C@H](CC(C)C)NC(=O)[C@H](CCCNC(=N)N)NC(=O)[C@H](CCC(N)=O)NC(=O)[C@@H](NC(=O)[C@H](C)NC(=O)[C@@H]1CSSC[C@H](NC(=O)[C@H](CCCNC(=N)N)NC(=O)CNC(=O)CC[C@H](NC(=O)CCCCCCCCCCCCCCCCCCC(=O)O)C(=O)O)C(=O)N[C@@H](CC(N)=O)C(=O)N[C@@H]([C@@H](C)O)C(=O)N[C@@H](C)C(=O)N[C@@H]([C@@H](C)O)C(=O)N1)[C@@H](C)O)C(=O)N1CCC[C@H]1C(=O)N[C@@H](CO)C(=O)N[C@@H](CO)C(=O)N[C@H](C(=O)N[C@@H](CC(N)=O)C(=O)N[C@H](C(=O)NCC(=O)N[C@@H](Cc1c[nH]cn1)C(=O)N[C@@H](CC(N)=O)C(=O)N[C@H](C(=O)N[C@@H](Cc1ccc(O)cc1)C(N)=O)[C@@H](C)O)C(C)C)[C@@H](C)O [Example 100] ({C20 diacid-γGlu}-GRCNTATCATQRLAHFLRHSSPNFGAIPSSTNVGHNTY-NH2; disulfide 3-8 (inferred)) | 6.8 | 6.8 | 6.8 | 33 | 65.3 | 65.3 | 65.3 | 65.3 | 65.3 | 65.3 | 65.3
3 | CC[C@H](C)[C@H](NC(=O)[C@H](C)NC(=O)CNC(=O)[C@H](Cc1ccccc1)NC(=O)[C@H](CC(N)=O)NC(=O)[C@@H]1CCCN1C(=O)[C@H](CO)NC(=O)[C@H](CO)NC(=O)[C@H](Cc1c[nH]cn1)NC(=O)[C@H](CCCNC(=N)N)NC(=O)[C@H](CC(C)C)NC(=O)[C@H](Cc1ccccc1)NC(=O)[C@H](CCC(=O)O)NC(=O)[C@H](C)NC(=O)[C@H](CC(C)C)NC(=O)[C@H](CCCNC(=N)N)NC(=O)[C@H](CCC(N)=O)NC(=O)[C@@H](NC(=O)[C@H](C)NC(=O)[C@@H]1CSSC[C@H](NC(=O)[C@@H](N)CCCCNC(=O)CC[C@H](NC(=O)CC[C@H](NC(=O)CCCCCCCCCCCCCCCCCCC(=O)O)C(=O)O)C(=O)O)C(=O)N[C@@H](CC(N)=O)C(=O)N[C@@H]([C@@H](C)O)C(=O)N[C@@H](C)C(=O)N[C@@H]([C@@H](C)O)C(=O)N1)[C@@H](C)O)C(=O)N[C@@H](CC(C)C)C(=O)N[C@@H](CO)C(=O)N[C@@H](CO)C(=O)N[C@H](C(=O)N1CCC[C@H]1C(=O)N[C@H](C(=O)NCC(=O)N1CCC[C@H]1C(=O)N[C@@H](CCC(=O)O)C(=O)N[C@H](C(=O)N[C@@H](Cc1ccc(O)cc1)C(N)=O)[C@@H](C)O)C(C)C)[C@@H](C)O [Example 121] (H-K([γGlu-γGlu-C20 diacid])CNTATCATQRLAEFLRHSSPNFGAILSSTPVGPETY-NH2; disulfide 2-7; N-terminus assumed) |  | 5.8 | 5.8 | 3 | 22.6 | 22.6 | 22.6 | 22.6 | 22.6 | 22.6 | 22.6
4 | CC[C@H](C)[C@H](NC(=O)[C@H](C)NC(=O)CNC(=O)[C@@H]1CCCN1C(=O)[C@H](CC(N)=O)NC(=O)[C@H](CC(N)=O)NC(=O)[C@H](CO)NC(=O)[C@H](CO)NC(=O)[C@H](Cc1c[nH]cn1)NC(=O)[C@H](CCCNC(=N)N)NC(=O)[C@H](CC(C)C)NC(=O)[C@H](Cc1ccccc1)NC(=O)[C@H](CCC(=O)O)NC(=O)[C@H](C)NC(=O)[C@H](CC(C)C)NC(=O)[C@H](CCCNC(=N)N)NC(=O)[C@H](CCC(N)=O)NC(=O)[C@@H](NC(=O)[C@H](C)NC(=O)[C@@H]1CSSC[C@H](NC(=O)[C@@H](N)CCCCNC(=O)CC[C@H](NC(=O)CC[C@H](NC(=O)CCCCCCCCCCCCCCCCCCC(=O)O)C(=O)O)C(=O)O)C(=O)N[C@@H](CC(N)=O)C(=O)N[C@@H]([C@@H](C)O)C(=O)N[C@@H](C)C(=O)N[C@@H]([C@@H](C)O)C(=O)N1)[C@@H](C)O)C(=O)N[C@@H](CC(C)C)C(=O)N[C@@H](CO)C(=O)N[C@@H](CO)C(=O)N[C@H](C(=O)N[C@@H](CC(N)=O)C(=O)N[C@H](C(=O)NCC(=O)N1CCC[C@H]1C(=O)N[C@@H](CCC(=O)O)C(=O)N[C@H](C(=O)N[C@@H](Cc1ccc(O)cc1)C(N)=O)[C@@H](C)O)C(C)C)[C@@H](C)O [Example 126] (H-K([γGlu-γGlu-C20 diacid])CNTATCATQRLAEFLRHSSNNPGAILSSTNVGPETY-NH2; disulfide 2-7 (inferred); N-terminus assumed) |  | 17.3 | 17.3 | 0 | 7.8 |  |  |  | 7.8 | 7.8 | 
